Where a name gives a salt, the structure may show the parent alone. Read-outs that look alike come from different tables or passages of the source.

The values that follow come from article PMC5584254, “Identification of novel small molecule Beclin 1 mimetics activating autophagy” (Oncotarget, 2017).

Assay [1] concerns the target T1, Bcl-xL-Beclin 1 complex (Homo sapiens, UniProt Q07817).
T1 construct: made in house
The experiment in a line: FP-based high-throughput screening, primary screen. It is filed as binding. The note with it: first screen; 40 μM compound, 2.5 μM Bcl-xL, 400 nM 20-mer. The source says: Next, we optimized the FP competitive binding assay in a 384-well microplate format and carried out a small-scale HTS using a small library, which contains 6580 compounds from Prestwick, Microsource and our in-house CMLD library. Then, the FP assay was optimized and applied in screening the larger Chembridge library consisting of 43736 compounds. HTS cascades are shown in Supplementary Figure 1A–1B. […] All chemical structures can be found on the PubChem website (http://pubchem.ncbi.nlm.nih.gov/).
(§1) Then the plates were read by Envision (Perkin Elmer, Waltham, MA). […] The hits were selected from library stocks and reconfirmed in a concentration response FP assay (6 doses ranging from 5 μM to 160 μM or 8 doses ranging from 0.5 μM to 60 μM).

For assay [2], the target named is T1, Bcl-xL-Beclin 1 complex. Nature of the assay: Concentration response FP reconfirmation of HTS hits. Conditions: for inhibition at 5 µM: read-out: Dose-response (% Inhibition) 5 μM; for inhibition at 10 µM: read-out: Dose-response (% Inhibition) 10 μM; for inhibition at 20 µM: read-out: Dose-response (% Inhibition) 20 μM; for inhibition at 40 µM: read-out: Dose-response (% Inhibition) 40 μM; for inhibition at 80 µM: read-out: Dose-response (% Inhibition) 80 μM; for inhibition at 160 µM: read-out: Dose-response (% Inhibition) 160 μM. It is filed as binding. As to the method:
as §1

T1 sequence (Q07817 whole entry, one chain of several): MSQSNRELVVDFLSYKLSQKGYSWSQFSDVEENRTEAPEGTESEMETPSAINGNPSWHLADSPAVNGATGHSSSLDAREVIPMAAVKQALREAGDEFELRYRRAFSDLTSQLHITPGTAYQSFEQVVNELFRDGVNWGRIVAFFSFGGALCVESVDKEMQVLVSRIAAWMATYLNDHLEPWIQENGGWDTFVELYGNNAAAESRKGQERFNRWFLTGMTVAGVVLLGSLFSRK

In the case of `CC1=NCCc2c1[nH]c1cc(O)ccc21` [Compound A28, HARMALOL HYDROCHLORIDE], at Bcl-xL-Beclin 1 complex [1], the “Primary Screen mP” value was found to be 56.2 mP and the inhibition at 40 µM stood at 60%. The inhibition at 5 µM at Bcl-xL-Beclin 1 complex [2] (5 μM, hits of first screen) worked out at 19.2%. Also, the inhibition at 10 µM at Bcl-xL-Beclin 1 complex [2] (10 μM, hits of first screen) was found to be 31.2%. The inhibition at 20 µM on Bcl-xL-Beclin 1 complex [2] (20 μM, hits of first screen) is 41.6%. For the same compound, on Bcl-xL-Beclin 1 complex [2] (40 μM, hits of first screen), the inhibition at 40 µM was 56.8%. Besides, the inhibition at 80 µM at Bcl-xL-Beclin 1 complex [2] (80 μM, hits of first screen) is 73%. For the same compound, the inhibition at 160 µM at Bcl-xL-Beclin 1 complex [2] (160 μM, hits of first screen) amounted to 86.2%.
In the case of `Cc1cc2nc3c(=O)[nH]c(=O)nc-3n(C[C@H](O)[C@H](O)[C@H](O)CO)c2cc1C` [Compound A31, RIBOFLAVIN], on Bcl-xL-Beclin 1 complex [1], the “Primary Screen mP” value is recorded as -3.2 mP and the inhibition at 40 µM turned out to be 102%. In addition, the inhibition at 5 µM at Bcl-xL-Beclin 1 complex [2] (5 μM, hits of first screen) was 67.6%. Besides, at Bcl-xL-Beclin 1 complex [2] (10 μM, hits of first screen), the inhibition at 10 µM worked out at 77.7%. Further, the inhibition at 20 µM at Bcl-xL-Beclin 1 complex [2] (20 μM, hits of first screen) was determined as 103%. The inhibition at 40 µM on Bcl-xL-Beclin 1 complex [2] (40 μM, hits of first screen) worked out at 99.7%. On Bcl-xL-Beclin 1 complex [2] (80 μM, hits of first screen), the inhibition at 80 µM came out at 102%. Besides, at Bcl-xL-Beclin 1 complex [2] (160 μM, hits of first screen), the inhibition at 160 µM turned out to be 103%.
For the compound `CCN(CC)CCNC(=O)COc1ccc(OC)cc1.Cl` [Compound A32, MEFEXAMIDE HYDROCHLORIDE], on Bcl-xL-Beclin 1 complex [1], the “Primary Screen % Inhibition” value is given as 14.40% and the “Primary Screen mP” value was determined as 119.7 mP. Also, the “Dose-response (% Inhibition) 5 μM” value at Bcl-xL-Beclin 1 complex [2] (5 μM, hits of first screen) is reported as -1.5%. Further, the “Dose-response (% Inhibition) 10 μM” value on Bcl-xL-Beclin 1 complex [2] (10 μM, hits of first screen) is on record as 2.6%. Further, on Bcl-xL-Beclin 1 complex [2] (20 μM, hits of first screen), the “Dose-response (% Inhibition) 20 μM” value amounted to 4.3%. On Bcl-xL-Beclin 1 complex [2] (40 μM, hits of first screen), the “Dose-response (% Inhibition) 40 μM” value is 11.2%. The “Dose-response (% Inhibition) 80 μM” value at Bcl-xL-Beclin 1 complex [2] (80 μM, hits of first screen) was 23.1%. The “Dose-response (% Inhibition) 160 μM” value at Bcl-xL-Beclin 1 complex [2] (160 μM, hits of first screen) was 32.1%.
Consider `O=C(O)c1cc(O)c2c(c1)[C@H]([C@H]1c3cc(C(=O)O)cc(O)c3C(=O)c3c(O[C@@H]4O[C@H](CO)[C@@H](O)[C@H](O)[C@H]4O)cccc31)c1cccc(O[C@@H]3O[C@H](CO)[C@@H](O)[C@H](O)[C@H]3O)c1C2=O` [Compound A34, SENNOSIDE A], for which, on Bcl-xL-Beclin 1 complex [1], the “Primary Screen mP” value came to 119.9 mP and the inhibition at 40 µM came out at 12.8%. Also, on Bcl-xL-Beclin 1 complex [2] (5 μM, hits of first screen), the inhibition at 5 µM was 0.5%. At Bcl-xL-Beclin 1 complex [2] (10 μM, hits of first screen), the inhibition at 10 µM was 4.7%. The inhibition at 20 µM on Bcl-xL-Beclin 1 complex [2] (20 μM, hits of first screen) turned out to be 6.3%. The inhibition at 40 µM at Bcl-xL-Beclin 1 complex [2] (40 μM, hits of first screen) came to 12%. Further, the inhibition at 80 µM on Bcl-xL-Beclin 1 complex [2] (80 μM, hits of first screen) amounted to 22.5%. For the same compound, the inhibition at 160 µM at Bcl-xL-Beclin 1 complex [2] (160 μM, hits of first screen) amounted to 20.9%.
Consider `O=C(O)c1cc(O)c2c(c1)[C@@H]([C@H]1c3cc(C(=O)O)cc(O)c3C(=O)c3c(O[C@@H]4O[C@H](CO)[C@@H](O)[C@H](O)[C@H]4O)cccc31)c1cccc(O[C@@H]3O[C@H](CO)[C@@H](O)[C@H](O)[C@H]3O)c1C2=O` [Compound A35, SENNOSIDE B], for which, at Bcl-xL-Beclin 1 complex [1], the “Primary Screen mP” value is 120.4 mP and the inhibition at 40 µM came to 14.3%. In addition, the inhibition at 5 µM at Bcl-xL-Beclin 1 complex [2] (5 μM, hits of first screen) amounted to 2.7%. Also, at Bcl-xL-Beclin 1 complex [2] (10 μM, hits of first screen), the inhibition at 10 µM was determined as 4.1%. Further, the inhibition at 20 µM on Bcl-xL-Beclin 1 complex [2] (20 μM, hits of first screen) is 5.8%. Also, the inhibition at 40 µM on Bcl-xL-Beclin 1 complex [2] (40 μM, hits of first screen) is 13.6%. Besides, the inhibition at 80 µM on Bcl-xL-Beclin 1 complex [2] (80 μM, hits of first screen) came to 21.1%. Also, on Bcl-xL-Beclin 1 complex [2] (160 μM, hits of first screen), the inhibition at 160 µM is 19.9%.
In the case of `COc1cccc2c1C(=O)c1c(O)c3c(c(O)c1C2=O)C[C@@](O)(C(C)=O)C[C@@H]3O[C@H]1C[C@H](N)[C@H](O)[C@H](C)O1` [Compound A36, DAUNORUBICIN], at Bcl-xL-Beclin 1 complex [1], the “Primary Screen mP” value is listed as 75.5 mP and the inhibition at 40 µM worked out at 45.8%. In addition, on Bcl-xL-Beclin 1 complex [2], the inhibition at 5 µM was determined as 22.8%, the inhibition at 10 µM stood at 33.4%, the inhibition at 20 µM is 41% and the inhibition at 40 µM came out at 44.4%. In addition, at Bcl-xL-Beclin 1 complex [2], the inhibition at 80 µM is 51.9% and the inhibition at 160 µM amounted to 56%.
As to `Cc1cc2c(C(C)C)c(O)c(O)c(C=O)c2c(O)c1-c1c(C)cc2c(C(C)C)c(O)c(O)c(C=O)c2c1O` [Compound A38, GOSSYPOL], at Bcl-xL-Beclin 1 complex [1], the “Primary Screen mP” value is 125.4 mP and the inhibition at 40 µM came to 10.8%. On Bcl-xL-Beclin 1 complex [2], the inhibition at 5 µM worked out at 2.7%, the inhibition at 10 µM amounted to 4.8%, the inhibition at 20 µM came to 5.4% and the inhibition at 40 µM worked out at 8.4%. Besides, at Bcl-xL-Beclin 1 complex [2], the inhibition at 80 µM turned out to be 14.7% and the inhibition at 160 µM was found to be 18.3%.
On to `O=C(Nc1ccccc1)c1ccccc1O` [Compound A39, SALICYLANILIDE], for which, at Bcl-xL-Beclin 1 complex [1], the “Primary Screen mP” value is recorded as -3.2 mP and the inhibition at 40 µM worked out at 102%. At Bcl-xL-Beclin 1 complex [2], the inhibition at 5 µM is 103%, the inhibition at 10 µM stood at 103%, the inhibition at 20 µM came to 103% and the inhibition at 40 µM was determined as 99.7%. Further, on Bcl-xL-Beclin 1 complex [2], the inhibition at 80 µM is 102% and the inhibition at 160 µM was 103%.
In the case of `CC[N+](C)(CC)CCC[n+]1c(-c2ccccc2)c2cc(N)ccc2c2ccc(N)cc21.[I-].[I-]` [Compound A40, PROPIDIUM IODIDE], at Bcl-xL-Beclin 1 complex [1], the “Primary Screen % Inhibition” value was determined as 7.08% and the “Primary Screen mP” value is 123.6 mP. In addition, the “Dose-response (% Inhibition) 5 μM” value on Bcl-xL-Beclin 1 complex [2] (5 μM, hits of first screen) is reported as 0.5%. Also, the “Dose-response (% Inhibition) 10 μM” value on Bcl-xL-Beclin 1 complex [2] (10 μM, hits of first screen) was -0.2%. At Bcl-xL-Beclin 1 complex [2] (20 μM, hits of first screen), the “Dose-response (% Inhibition) 20 μM” value was determined as 1.2%. Besides, the “Dose-response (% Inhibition) 40 μM” value at Bcl-xL-Beclin 1 complex [2] (40 μM, hits of first screen) is 4.4%. The “Dose-response (% Inhibition) 80 μM” value at Bcl-xL-Beclin 1 complex [2] (80 μM, hits of first screen) worked out at 12.1%. Also, at Bcl-xL-Beclin 1 complex [2] (160 μM, hits of first screen), the “Dose-response (% Inhibition) 160 μM” value came to 18.3%.

By inhibition is commonly meant the change of the read-out against control, counted positive when it falls.
